SMILES strings stand for the structures. Where two headings read alike, the source gives them in different places.

The values below come from article PMC6379071 (Biochemistry, 2016).

The target in series [1] is T1, SULT1A1 (Homo sapiens, UniProt P50225). The series is classed as binding.
The next series addresses T2, SULT2A1 (Homo sapiens, UniProt Q06520).
T2 sequence (Q06520 1-285): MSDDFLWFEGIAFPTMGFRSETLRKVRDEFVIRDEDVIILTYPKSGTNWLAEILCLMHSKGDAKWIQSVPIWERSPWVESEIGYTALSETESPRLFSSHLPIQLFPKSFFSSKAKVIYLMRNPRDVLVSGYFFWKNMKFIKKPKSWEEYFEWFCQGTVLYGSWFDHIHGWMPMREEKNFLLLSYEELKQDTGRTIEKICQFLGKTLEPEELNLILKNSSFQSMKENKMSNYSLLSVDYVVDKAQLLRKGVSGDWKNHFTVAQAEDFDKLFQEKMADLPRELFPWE
The experiment in a line: 35S-PAPS test whether EGCG is a substrate. It is filed as biochemical.

Series [2] deals with T1, SULT1A1. The experiment in a line: Presteady state. It is filed as binding.
Series [3] concerns the target T1, SULT1A1. To be noted: SULT1A1 isoform; cited from earlier work.
The conditions of series [4]: cited from earlier work.
In series [5] the target is T1, SULT1A1. The experiment in a line: 35S-PAPS test whether EGCG is a substrate. The series is classed as biochemical.
In series [6] the target is T1, SULT1A1. To be noted: PAP, cited from earlier work.
The target in series [7] is T1, SULT1A1. To be noted: cited from earlier work; for second molecule binds more weakly than the first: unliganded SULT1A1 dimer.
The target of series [8] is T1, SULT1A1. To be noted: PAPS 100 μM, NaPO4 50 mM, pH 7.2, 25 °C.
[9] abbreviates: read-out: Kd of acceptor, enzyme form E·(EGCG)2.
The mark [10] stands for this setting: EGCG binding to E·(PAP)2, two-step model.
The mark [11] stands for this setting: EGCG, enzyme species E·PAP·EGCG.

T1 sequence (P50225 whole entry): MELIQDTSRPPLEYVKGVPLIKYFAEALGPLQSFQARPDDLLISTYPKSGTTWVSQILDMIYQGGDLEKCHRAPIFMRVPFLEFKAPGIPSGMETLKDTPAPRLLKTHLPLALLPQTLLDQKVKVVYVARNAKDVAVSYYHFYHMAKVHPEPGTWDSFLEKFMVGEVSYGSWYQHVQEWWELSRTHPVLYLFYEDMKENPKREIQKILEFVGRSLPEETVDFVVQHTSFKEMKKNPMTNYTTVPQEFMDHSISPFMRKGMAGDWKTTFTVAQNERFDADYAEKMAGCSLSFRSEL

For `C[C@]12CC[C@@H]3c4ccc(O)cc4CC[C@H]3[C@@H]1CC[C@@H]2O` [E2, 17-β-estradiol], the Kd on SULT1A1 [1] stood at 1000 nM; at SULT1A1 [1] (setting [9]), 1000 nM; on SULT1A1 [1] (read-out: Kd of acceptor, enzyme form E·(PAP)2), 1000 nM; on SULT1A1 [1] (read-out: Kd of acceptor, enzyme form E·(PAP)2·(EGCG)2), 1000 nM. Further, the “decrease of acceptor affinity when EGCG binds to E·(PAP)2” value at SULT1A1 [1] was “not affected”.

The term Ki denotes a measure of affinity in units of concentration, obtained from inhibition or displacement. On to `O=C(O[C@@H]1Cc2c(O)cc(O)cc2O[C@@H]1c1cc(O)c(O)c(O)c1)c1cc(O)c(O)c(O)c1` [EGCG, epigallocatechin gallate], for which, on SULT2A1 (EGCG 30 μM, 35S-PAPS 30 μM, SULT2A1 0.50 μM dimer, in 2 min), the “EGCG converted to product” value is recorded as 12%. Moreover, the “PAPS converted to sulfonated EGCG” value on SULT2A1 (SULT2A1 30 μM, EGCG 250 μM, 35S-PAPS 0.30 μM, in 1.0 min) was “Thirty-four”. Further, the “Kiso for the cap of the high-affinity subunit in the E·(EGCG)2 complex” value at SULT1A1 [2] (21 × 18) came to 378. On SULT1A1 [2] (setting [10]), the “kfor, binding step” value is 9.9 (0.6) × 10^6M^−1s^−1. Besides, the “kfor, isomerization step (cap closure)” value at SULT1A1 [2] (setting [10]) is 172 s⁻¹. Besides, on SULT1A1 [2] (setting [10]), the “krev, binding step” value was 6.5 s⁻¹. In addition, on SULT1A1 [2] (setting [10]), the “krev, isomerization step” value amounted to 10 s⁻¹. Besides, the koff at SULT1A1 [2] (EGCG, enzyme species E) is recorded as 6.9 (0.2) s^−1; on SULT1A1 [2] (EGCG, enzyme species E·PAP), 0.62 (0.03) s^−1; on SULT1A1 [2] (setting [11]) it was 13.9 (0.2) s^−1. Moreover, the kon at SULT1A1 [2] (EGCG, enzyme species E) is reported as 9.8 (0.3)^a μM^−1s^−1; on SULT1A1 [2] (EGCG, enzyme species E·PAP), 13.5 (0.7) μM^−1s^−1; on SULT1A1 [2] (setting [11]), 17.1 (0.3) μM^−1s^−1. The “Kiso, isomerization equilibrium constant” value on SULT1A1 [2] (EGCG-bound E·(PAP)2) is 17. The Kd came out at 710 nM at SULT1A1 [2] (read-out: Kd (koff/Kon), EGCG, enzyme species E); 46 nM on SULT1A1 [2] (read-out: Kd (koff/Kon), EGCG, enzyme species E·PAP); 810 nM on SULT1A1 [2] (read-out: Kd (koff/Kon), EGCG, enzyme species E·PAP·EGCG); 680 nM on SULT1A1 [1] (read-out: Kd EGCG, enzyme form E (ligand-free), allosteric site); 39 nM at SULT1A1 [1] (read-out: Kd EGCG, enzyme form E·(PAP)2); 810 nM at SULT1A1 [1] (read-out: Kd EGCG, enzyme form E·EGCGPAP). Also, the Kd at SULT1A1 [1] (read-out: Kd EGCG, enzyme form E·PAP) worked out at 44 nM. Besides, the “affinity of EGCG for E·PAP relative to its affinity for E” value on SULT1A1 [1] is reported as 15 fold. Further, the EGCG binding stoichiometry is 1.0 EGCG/subunit on SULT1A1 [1] (E·(PAP)2) and 1.0 per dimer on SULT1A1 [1] (E·PAP, PAP-containing subunit (high-affinity site)). Besides, the “EGCG binds more tightly to cap-closed (nucleotide-bound) form” value on SULT1A1 [1] (cap closed vs open) is on record as 17 fold. At SULT1A1 [1] (ligand-free enzyme, [SULT1A1] = 15 Kd), this compound returned an EGCG-binding stoichiometry of 1.0 per subunit. Moreover, the Ki at SULT1A1 [3] is 34 nM. Also, the “concentration of EGCG in human plasma” value in [4] was ~ 0.4 μ. Also, at SULT1A1 [5] (SULT1A1 30 μM, EGCG 250 μM, 35S-PAPS 0.30 μM, over 30 min), the “sulfonation of EGCG” value is listed as “not detected”. Besides, the “turnover of EGCG” value at SULT1A1 [5] (from lower detection limit ~5 % of PAPS conversion over 30 min) is reported as “less than 0.16 % min^−1”.

As to `Nc1ncnc2c1ncn2[C@@H]1O[C@H](COP(=O)(O)O)[C@@H](OP(=O)(O)O)[C@H]1O` [PAP, 3’, 5’-diphosphoadenosine], the koff was 0.70 (0.05) s^−1 on SULT1A1 [6] (enzyme species E); 29 ([1]) s^−1 on SULT1A1 [6] (enzyme species E·PAP); 0.038 s⁻¹ on SULT1A1 [2] (PAP, enzyme species E·(EGCG)2 (high-affinity site), saturating EGCG); 0.77 s⁻¹ on SULT1A1 [2] (PAP, enzyme species E·(EGCG)2·PAP). In addition, the kon is 2.0 (0.1) μM^−1s^−1 on SULT1A1 [6] (enzyme species E); 0.96 (0.01) μM^−1s^−1 on SULT1A1 [6] (enzyme species E·PAP); 1.7e+06 M⁻¹ s⁻¹ on SULT1A1 [2] (PAP, enzyme species E·(EGCG)2 (high-affinity site)); 880000 M⁻¹ s⁻¹ at SULT1A1 [2] (PAP, enzyme species E·(EGCG)2·PAP (low-affinity site)). Besides, the Kd was 370 nM on SULT1A1 [6] (read-out: Kd (koff/Kon), enzyme species E); 22 nM on SULT1A1 [2] (Kd (koff/Kon), PAP, enzyme species E·(EGCG)2); 880 nM on SULT1A1 [2] (Kd (koff/Kon), PAP, enzyme species E·(EGCG)2·PAP); 24 nM on SULT1A1 [1] (Kd PAP, enzyme form E·(EGCG)2 (high-affinity site)); 780 nM on SULT1A1 [1] (Kd PAP, enzyme form E·(EGCG)2PAP (low-affinity site)); 31000 nM at SULT1A1 [1] (Kd PAP, enzyme form E·EGCGPAP). Also, the Kd at SULT1A1 [7] (read-out: Kd PAP, enzyme form E) was 350 nM. Besides, the “koff for PAP departure from the high affinity site of E·(EGCG)2, fold less than that from E” value on SULT1A1 [2] worked out at 18 fold. For the same compound, the “decrease in the affinity of the second nucleotide caused by binding of the first” value on SULT1A1 [1] (E·(EGCG)2 complex) was determined as 33 fold. Also, the “increase of PAP affinity at saturating EGCG” value on SULT1A1 [1] (high-affinity site) stood at 15 fold; on SULT1A1 [1] (low-affinity site) it was 40 fold. Also, the “second molecule binds more weakly than the first” value at SULT1A1 [7] was 88 fold.

Take `Nc1ncnc2c1ncn2[C@@H]1O[C@H](COP(=O)(O)OS(=O)(=O)O)[C@@H](OP(=O)(O)O)[C@H]1O` [PAPS, 3’-phosphoadenosine 5’-phosphosulfate]: on SULT1A1 [7], the “second molecule binds more weakly than the first” value is 88 fold.

By Km is commonly meant the substrate concentration at which the rate is half of its maximum. Turning to `O=[N+]([O-])c1ccc(O)cc1` [PNP, para-nitrophenol], the kcat at SULT1A1 [8] (PNP as acceptor) is reported as 60 (± 1.8). In addition, on SULT1A1 [8] (PNP), the inhibition constant (Ki) stood at 6600 nM. Besides, on SULT1A1 [8] (read-out: Km (PNP)), the Km was 1.4 µM.

With `CC/C(=C(\c1ccc(O)cc1)c1ccc(OCCN(C)C)cc1)c1ccccc1` [TAM, 4-hydroxytamoxifen], at SULT1A1 [1], the “decrease of acceptor affinity when EGCG binds to E·(PAP)2” value came to 23 fold. Besides, the Kd on SULT1A1 [1] (Kd of acceptor, enzyme form E·(PAP)2) came to 700 nM; at SULT1A1 [1] (Kd of acceptor, enzyme form E·(PAP)2·(EGCG)2), 16000 nM; on SULT1A1 [1] (read-out: Kd of acceptor, enzyme form E), 650 nM; on SULT1A1 [1] (setting [9]), 670 nM.
